#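 Cultured in 96-well plates, cells were exposed to test compound for 48 hours across five concentrations. GI50 is the concentration that inhibits growth by half. TGI marks complete inhibition of growth.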
# What was measured:
# Experiment in all cases: growth of human tumour cells (NCI), 48 h
# 786-0 renal = tested on: 786-0 renal
# A498 renal = tested on: A498 renal
# A549 NSCLC = tested on: A549 NSCLC
# ACHN renal = tested on: ACHN renal
# BT-549 breast = tested on: BT-549 breast
# CAKI-1 renal = tested on: CAKI-1 renal
# CCRF-CEM leukemia = tested on: CCRF-CEM leukemia
# COLO 205 colon = tested on: COLO 205 colon
# DU-145 prostate = tested on: DU-145 prostate
# EKVX NSCLC = tested on: EKVX NSCLC
# HCT-116 colon = tested on: HCT-116 colon
# HCT-15 colon = tested on: HCT-15 colon
# HL-60(TB) leukemia = tested on: HL-60(TB) leukemia
# HOP-62 NSCLC = tested on: HOP-62 NSCLC
# HOP-92 NSCLC = tested on: HOP-92 NSCLC
# HS 578T breast = tested on: HS 578T breast
# HT29 colon = tested on: HT29 colon
# IGROV1 ovarian = tested on: IGROV1 ovarian
# K-562 leukemia = tested on: K-562 leukemia
# KM12 colon = tested on: KM12 colon
# LOX IMVI melanoma = tested on: LOX IMVI melanoma
# M14 melanoma = tested on: M14 melanoma
# MCF7 breast = tested on: MCF7 breast
# MDA-MB-231 breast = tested on: MDA-MB-231 breast
# MDA-MB-435 = tested on: MDA-MB-435
# MOLT-4 leukemia = tested on: MOLT-4 leukemia
# NCI-H226 lung = tested on: NCI-H226 lung
# NCI-H460 lung = tested on: NCI-H460 lung
# NCI-H522 lung = tested on: NCI-H522 lung
# OVCAR-3 ovarian = tested on: OVCAR-3 ovarian
# OVCAR-4 ovarian = tested on: OVCAR-4 ovarian
# OVCAR-8 ovarian = tested on: OVCAR-8 ovarian
# PC-3 prostate = tested on: PC-3 prostate
# RPMI-8226 leukemia = tested on: RPMI-8226 leukemia
# RXF 393 renal = tested on: RXF 393 renal
# SF-268 CNS = tested on: SF-268 CNS
# SF-295 CNS = tested on: SF-295 CNS
# SF-539 CNS = tested on: SF-539 CNS
# SK-MEL-2 melanoma = tested on: SK-MEL-2 melanoma
# SK-MEL-28 melanoma = tested on: SK-MEL-28 melanoma
# SK-MEL-5 melanoma = tested on: SK-MEL-5 melanoma
# SK-OV-3 ovarian = tested on: SK-OV-3 ovarian
# SN12C renal = tested on: SN12C renal
# SNB-19 CNS = tested on: SNB-19 CNS
# SNB-75 CNS = tested on: SNB-75 CNS
# SR leukemia = tested on: SR leukemia
# SW-620 colon = tested on: SW-620 colon
# T-47D breast = tested on: T-47D breast
# TK-10 renal = tested on: TK-10 renal
# U251 CNS = tested on: U251 CNS
# UACC-257 melanoma = tested on: UACC-257 melanoma
# UACC-62 melanoma = tested on: UACC-62 melanoma
# UO-31 renal = tested on: UO-31 renal
# HCC-2998 colon = tested on: HCC-2998 colon
# MALME-3M melanoma = tested on: MALME-3M melanoma
# NCI-H23 lung = tested on: NCI-H23 lung
# NCI/ADR-RES ovarian = tested on: NCI/ADR-RES ovarian
# OVCAR-5 ovarian = tested on: OVCAR-5 ovarian
structure (smiles),measurement,setting,value
O=C(NCc1ccc(Cl)cc1Cl)c1ccc(NC2=C(Cl)C(=O)N(Cc3ccccc3)C2=O)cc1,GI50,786-0 renal,30.1 µM
same,TGI,786-0 renal,> 100 µM
same,GI50,A498 renal,28.1 µM
same,TGI,A498 renal,56.8 µM
same,GI50,A549 NSCLC,36 µM
same,TGI,A549 NSCLC,> 100 µM
same,GI50,ACHN renal,20.8 µM
same,TGI,ACHN renal,48.1 µM
same,GI50,BT-549 breast,20.3 µM
same,TGI,BT-549 breast,42 µM
same,GI50,CAKI-1 renal,18.2 µM
same,TGI,CAKI-1 renal,52.4 µM
same,GI50,CCRF-CEM leukemia,1.41 µM
same,TGI,CCRF-CEM leukemia,7.65 µM
same,GI50,COLO 205 colon,23.3 µM
same,TGI,COLO 205 colon,66.5 µM
same,GI50,DU-145 prostate,39.9 µM
same,TGI,DU-145 prostate,> 100 µM
same,GI50,EKVX NSCLC,36.4 µM
same,TGI,EKVX NSCLC,> 100 µM
same,GI50,HCT-116 colon,53.5 µM
same,TGI,HCT-116 colon,> 100 µM
same,GI50,HCT-15 colon,32.4 µM
same,TGI,HCT-15 colon,> 100 µM
same,GI50,HL-60(TB) leukemia,14.8 µM
same,TGI,HL-60(TB) leukemia,60.8 µM
same,GI50,HOP-62 NSCLC,36.3 µM
same,TGI,HOP-62 NSCLC,> 100 µM
same,GI50,HOP-92 NSCLC,10.6 µM
same,TGI,HOP-92 NSCLC,27.8 µM
same,GI50,HS 578T breast,23.4 µM
same,TGI,HS 578T breast,52.7 µM
same,GI50,HT29 colon,54.3 µM
same,TGI,HT29 colon,> 100 µM
same,GI50,IGROV1 ovarian,15.8 µM
same,TGI,IGROV1 ovarian,> 100 µM
same,GI50,K-562 leukemia,9.98 µM
same,TGI,K-562 leukemia,30.9 µM
same,GI50,KM12 colon,38.4 µM
same,TGI,KM12 colon,> 100 µM
same,GI50,LOX IMVI melanoma,7.02 µM
same,TGI,LOX IMVI melanoma,> 100 µM
same,GI50,M14 melanoma,58.7 µM
same,TGI,M14 melanoma,> 100 µM
same,GI50,MCF7 breast,11.9 µM
same,TGI,MCF7 breast,48.9 µM
same,GI50,MDA-MB-231 breast,21.1 µM
same,TGI,MDA-MB-231 breast,55.9 µM
same,GI50,MDA-MB-435,33.4 µM
same,TGI,MDA-MB-435,> 100 µM
same,GI50,MOLT-4 leukemia,7.17 µM
same,TGI,MOLT-4 leukemia,23.9 µM
same,GI50,NCI-H226 lung,26.8 µM
same,TGI,NCI-H226 lung,> 100 µM
same,GI50,NCI-H460 lung,17.8 µM
same,TGI,NCI-H460 lung,47 µM
same,GI50,NCI-H522 lung,24.6 µM
same,TGI,NCI-H522 lung,> 100 µM
same,GI50,OVCAR-3 ovarian,31.9 µM
same,TGI,OVCAR-3 ovarian,> 100 µM
same,GI50,OVCAR-4 ovarian,18.5 µM
same,TGI,OVCAR-4 ovarian,40.3 µM
same,GI50,OVCAR-8 ovarian,12 µM
same,TGI,OVCAR-8 ovarian,26.5 µM
same,GI50,PC-3 prostate,14.3 µM
same,TGI,PC-3 prostate,31.9 µM
same,GI50,RPMI-8226 leukemia,4.45 µM
same,TGI,RPMI-8226 leukemia,44.5 µM
same,GI50,RXF 393 renal,18.7 µM
same,TGI,RXF 393 renal,52.6 µM
same,GI50,SF-268 CNS,18.9 µM
same,TGI,SF-268 CNS,49.1 µM
same,GI50,SF-295 CNS,32.8 µM
same,TGI,SF-295 CNS,> 100 µM
same,GI50,SF-539 CNS,21.3 µM
same,TGI,SF-539 CNS,39.1 µM
same,GI50,SK-MEL-2 melanoma,78.8 µM
same,TGI,SK-MEL-2 melanoma,> 100 µM
same,GI50,SK-MEL-28 melanoma,41.6 µM
same,TGI,SK-MEL-28 melanoma,> 100 µM
same,GI50,SK-MEL-5 melanoma,24 µM
same,TGI,SK-MEL-5 melanoma,66.7 µM
same,GI50,SK-OV-3 ovarian,57.5 µM
same,TGI,SK-OV-3 ovarian,> 100 µM
same,GI50,SN12C renal,26.7 µM
same,TGI,SN12C renal,75.5 µM
same,GI50,SNB-19 CNS,44.1 µM
same,TGI,SNB-19 CNS,> 100 µM
same,GI50,SNB-75 CNS,17.8 µM
same,TGI,SNB-75 CNS,34.2 µM
same,GI50,SR leukemia,0.734 µM
same,TGI,SR leukemia,2.55 µM
same,GI50,SW-620 colon,26.9 µM
same,TGI,SW-620 colon,> 100 µM
same,GI50,T-47D breast,51.3 µM
same,TGI,T-47D breast,> 100 µM
same,GI50,TK-10 renal,28.7 µM
same,TGI,TK-10 renal,91.4 µM
same,GI50,U251 CNS,15.7 µM
same,TGI,U251 CNS,34.2 µM
same,GI50,UACC-257 melanoma,61 µM
same,TGI,UACC-257 melanoma,> 100 µM
same,GI50,UACC-62 melanoma,18.4 µM
same,TGI,UACC-62 melanoma,39.8 µM
same,GI50,UO-31 renal,3.41 µM
same,TGI,UO-31 renal,> 100 µM
CCOC(=O)c1sc2nc(SC)nc3c2c1NCN3C1CC1,TGI,786-0 renal,> 100 µM
same,TGI,A498 renal,> 100 µM
same,TGI,A549 NSCLC,> 100 µM
same,TGI,ACHN renal,> 100 µM
same,TGI,BT-549 breast,> 100 µM
same,TGI,CAKI-1 renal,> 100 µM
same,TGI,CCRF-CEM leukemia,> 100 µM
same,TGI,COLO 205 colon,> 100 µM
same,TGI,DU-145 prostate,> 100 µM
same,TGI,HCC-2998 colon,> 100 µM
same,TGI,HCT-116 colon,> 100 µM
same,TGI,HCT-15 colon,> 100 µM
same,TGI,HOP-62 NSCLC,> 100 µM
same,TGI,HOP-92 NSCLC,> 100 µM
same,TGI,HS 578T breast,> 100 µM
same,TGI,HT29 colon,> 100 µM
same,TGI,IGROV1 ovarian,> 100 µM
same,TGI,KM12 colon,> 100 µM
same,TGI,LOX IMVI melanoma,> 100 µM
same,TGI,M14 melanoma,> 100 µM
same,TGI,MALME-3M melanoma,> 100 µM
same,TGI,MDA-MB-231 breast,> 100 µM
same,TGI,MDA-MB-435,> 100 µM
same,TGI,NCI-H226 lung,> 100 µM
same,TGI,NCI-H23 lung,> 100 µM
same,TGI,NCI-H460 lung,> 100 µM
same,TGI,NCI/ADR-RES ovarian,> 100 µM
same,TGI,OVCAR-3 ovarian,> 100 µM
same,TGI,OVCAR-4 ovarian,> 100 µM
same,TGI,OVCAR-5 ovarian,> 100 µM
same,TGI,OVCAR-8 ovarian,> 100 µM
same,TGI,PC-3 prostate,> 100 µM
same,TGI,RPMI-8226 leukemia,> 100 µM
same,TGI,RXF 393 renal,> 100 µM
same,TGI,SF-268 CNS,> 100 µM
same,TGI,SF-295 CNS,> 100 µM
same,TGI,SK-MEL-2 melanoma,> 100 µM
same,TGI,SK-MEL-28 melanoma,> 100 µM
same,TGI,SK-MEL-5 melanoma,> 100 µM
same,TGI,SK-OV-3 ovarian,> 100 µM
same,TGI,SN12C renal,> 100 µM
same,TGI,SNB-19 CNS,> 100 µM
same,TGI,SNB-75 CNS,> 100 µM
same,TGI,T-47D breast,> 100 µM
same,TGI,TK-10 renal,> 100 µM
same,TGI,U251 CNS,> 100 µM
same,TGI,UACC-257 melanoma,> 100 µM
same,TGI,UACC-62 melanoma,> 100 µM
same,TGI,UO-31 renal,> 100 µM

# — PubChem BioAssay (NCI)
